Results published in patent US10590143B2, “Herbicidally active (alkynyl-phenyl)-substituted cyclic dione compounds and derivatives thereof” (Syngenta Limited, priority 2013, dated 2020).

Legend:
Assay in all cases: Biological Example 3 glasshouse assay for herbicidal activity, using various adjuvant systems
Assay type in all cases: in vivo
Details in all cases: post-emergence, 8 g/ha, 14 or 15 DAA; adjuvant 0.5% v/v + 1.0% AMS + 12.5% IPA: TEHP (A3-A7), Adigor (A8, P1, P2, P4), Hexamoll DINCH (A1)
[1] = tested on: Brachiaria decumbens (BRADC)
Method: (§1) • Materials and Methods • Herbicide Application: Post-emergence foliar spray application, 200 L/ha, usually one or two replicates for the weeds (depending on application rate), and two replicates for soybean. • Climate: Standard warm conditions (tropical), in glasshouse. Specifically, the glasshouse bay conditions are 24° C./18° C. day/night; 16/8 hours light/dark; 65% humidity. • Plants: The herbicidal application takes place at the following growth stages for plants which include inter alia one or more of the following plants (usually the herbicidal application takes place on at least the following plants: DIGSA, ELEIN, SETFA, ZEAMX, GLXMA Nikko, and GLXMA TMG133, and often also either BRADC or BRAPP): • Brachiaria decumbens (BRADC)—growth stage (GS) 12 or 13 (or GS 12)—or, if BRADC is not used, then usually Brachiaria platyphylla (BRAPP)—growth stage 12 or 13 • Digitaria sanguinalis (DIGSA)—growth stage 12 or 13 • Eleusine indica (ELEIN)—growth stage 12 or 13 • Setaria faberi (SETFA)—growth stage 12 or 13 • Echinochloa crus-galli (ECHCG)—growth stage 12 or 13 • Sorghum halepense (annual) (SORHA)—growth stage 12 or 13 • Panicum dichotomiflorum (PANDI)—growth stage 12 or 13 • Zea mays (ZEAMX, maize/corn, e.g. can occur as volunteer corn) cultivar “Garland”—growth stage 12 or 13 • Glycine max (GLXMA, soybean) cultivar “Nikko”—growth stage: 1st trifoliate • Glycine max (GLXMA, soybean) cultivar “TMG133”—which is Roundup Ready™ glyphosate-tolerant soybean cultivar TMG133 (typically available from Monsanto in Brazil)—growth stage: 1st trifoliate. • Herbicidal Compositions Tested:
(§2) Each test compound is applied with one of the following adjuvant systems (all percentages are final concentrations in the aqueous spray mixture): • Adjuvant system 1: 0.5% v/v Adigor™*, 1.0% v/v AMS (ammonium sulphate) and 12.5% v/v IPA (isopropyl alcohol). • Adjuvant system 2: 0.5% v/v Hexamoll™ DINCH**, 1.0% v/v AMS (ammonium sulphate) and 12.5% v/v IPA (isopropyl alcohol). • Adjuvant system 3: 0.5% v/v tris-(2-ethylhexyl)phosphate (“TEHP”), 1.0% v/v AMS (ammonium sulphate) and 12.5% v/v IPA (isopropyl alcohol). ***Adigor™ (currently available in many countries from Syngenta) is an emulsifiable concentrate which consists of: • (i) ethoxylated alcohols, which typically includes ethoxylated higher alcohols (e.g. ethoxylates of alcohols wherein the alcohols are within the range of C12-C22); and • (ii) a mixture of heavy aromatic hydrocarbons, which typically includes (e.g. includes 50% or more by weight of the heavy aromatic hydrocarbons of) a mixture of naphthalenes each of which is substituted by one or more alkyls wherein the alkyl(s) in total have 1-4 carbon atoms per naphthalene molecule (e.g. Solvesso 200 ND™); and • (iii) about 47% w/w and/or about 45% w/v (with respect to the emulsifiable concentrate) of methylated rapeseed oil (rapeseed oil methyl ester) (e.g. Agnique ME 18 RD-F™), as an adjuvant. **Hexamoll™ DINCH™ is 1,2-cyclohexane dicarboxylic acid di-isononyl ester
(§3) Seeds of the weed (including volunteer) plants, typically including inter alia Digitaria sanguinalis (DIGSA), Eleusine indica (ELEIN), Setaria faberi (SETFA), Zea mays (ZEAMX, corn), and sometimes also [either Brachiaria decumbens (BRADC) or Brachiaria platyphylla (BRAPP)], are sown in seed trays (troughs) containing clay loam soil (pH 7.0, 2.2% organic matter, “Trough Mix A”); and soybean seed is sown in pots containing the same soil with 3 soybean seedlings per pot. The plants are sprayed with the test herbicide when they reach the growth stages mentioned above.
(§4) The test herbicidal solutions are prepared by mixing the appropriate aliquots of the test substance(s) and one of the adjuvant systems indicated above*** in deionised water to give the desired treatment concentration.
(§5) The herbicidal application is made as a foliar spray, using a tracksprayer. Following the herbicidal application, the plants are watered twice per day for the duration of the test. […]

[2] = tested on: Setaria faberi (SETFA)
Method: as §1, §2, §3, §4, §5

[3] = tested on: Digitaria sanguinalis (DIGSA)
Method: as §1, §2, §3, §4, §5

[4] = tested on: Eleusine indica (ELEIN)
Method: as §1, §2, §3, §4, §5

Compound	percentage control of (percentage phytotoxicity on) Brachiaria decumbens (BRADC) [1] [%]	percentage control of (percentage phytotoxicity on) Setaria faberi (SETFA) [2] [%]	percentage control of (percentage phytotoxicity on) Digitaria sanguinalis (DIGSA) [3] [%]	percentage control of (percentage phytotoxicity on) Eleusine indica (ELEIN) [4] [%]
COc1cc(C#CCl)cc(F)c1C1C(=O)C2CCC(C2)C1=O (centres unmarked) [Compound A8, 3-[4-(2-chloroethynyl)-2-fluoro-6-methoxy-phenyl]bicyclo[3.2.1]octane-2,4-dione]	15	10	30	5
CC#Cc1cc(F)c(C2=C(OC(=O)C(C)(C)C)C3CCC(C3)C2=O)c(OC)c1 (centres unmarked) [Compound P1]	–	–	70	–
